According to patent publication EP0610032A1, “Acetanilide derivatives” (ZENECA LIMITED, priority 1993, dated 1994):

Tests used:
5-LO [1] = biological target: T1, 5-LO (Homo sapiens, UniProt P09917); assay: Test a): in vitro heparinised human blood challenged with calcium ionophore A23187, radioimmunoassay of LTB₄; assay type: cell-based; details: A23187 challenge, read-out: IC₅₀ (LTB₄)
T1 construct: incubating a test compound with heparinised human blood, prior to challenge with the calcium ionophore A23187; endogenous in cells; host or cells: heparinised human whole blood (blood cells)
T1 sequence (P09917 1-674): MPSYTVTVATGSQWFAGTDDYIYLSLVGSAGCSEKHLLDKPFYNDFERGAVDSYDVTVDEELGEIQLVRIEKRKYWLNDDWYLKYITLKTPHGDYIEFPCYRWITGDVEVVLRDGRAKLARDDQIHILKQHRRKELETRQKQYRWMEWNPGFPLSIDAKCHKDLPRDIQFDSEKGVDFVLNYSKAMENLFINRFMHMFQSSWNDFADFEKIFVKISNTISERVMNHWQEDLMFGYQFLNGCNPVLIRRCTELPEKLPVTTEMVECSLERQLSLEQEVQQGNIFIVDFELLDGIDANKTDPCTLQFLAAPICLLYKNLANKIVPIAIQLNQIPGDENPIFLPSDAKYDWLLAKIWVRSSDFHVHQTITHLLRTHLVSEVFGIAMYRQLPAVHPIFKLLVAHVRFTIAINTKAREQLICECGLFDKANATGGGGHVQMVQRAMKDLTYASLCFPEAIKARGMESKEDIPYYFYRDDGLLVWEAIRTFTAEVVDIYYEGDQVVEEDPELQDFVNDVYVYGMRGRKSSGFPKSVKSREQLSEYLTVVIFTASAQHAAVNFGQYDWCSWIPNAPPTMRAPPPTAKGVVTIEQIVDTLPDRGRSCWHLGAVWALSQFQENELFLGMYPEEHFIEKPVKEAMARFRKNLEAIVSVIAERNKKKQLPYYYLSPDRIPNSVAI
From the text: As stated previously, the compounds of the formula I are inhibitors of the enzyme 5-LO. […] J. Pharmacol., 1985, 84, 34P) which involves the use of a protein-LTB₄ conjugate produced using the procedure of Young et alia (Prostaglandins, 1983, 26(4), 605-613). The effects of a test compound on the enzyme cyclooxygenase (which is involved in the alternative metabolic pathway for arachidonic acid and gives rise to prostaglandins, thromboxanes and related metabolites) may be measured at the same time using the specific radioimmunoassay for thromboxane B₂(TxB₂) described by Carey and Forder (see above). This test provides an indication of the effects of a test compound against 5-LO and also cyclooxygenase in the presence of blood cells and proteins. It permits the selectivity of the inhibitory effect on 5-LO or cyclooxygenase to be assessed. • b) An ex vivo assay system, which is a variation of test a) above, involving administration to a group of rats of a test compound (usually orally as the suspension produced when a solution of the test compound in dimethylsulphoxide is added to carboxymethylcellulose), blood collection, heparinisation, challenge with A23187 and radioimmunoassay of LTB₄ and TxB₂. […]

5-LO [2] = biological target: T2, 5-LO (Rattus norvegicus, UniProt P12527); assay: Test c): in vivo zymosan-induced LTB₄ liberation in subcutaneous air pouch of male rats; details: oral, 3 hours, read-out: oral ED₅₀(LTB₄)
T2 construct: liberation of LTB₄ induced by zymosan within an air pouch generated within the subcutaneous tissue of the back of male rats; from tissue; host or cells: subcutaneous air pouch of male rats (in vivo)
T2 sequence (P12527 1-673): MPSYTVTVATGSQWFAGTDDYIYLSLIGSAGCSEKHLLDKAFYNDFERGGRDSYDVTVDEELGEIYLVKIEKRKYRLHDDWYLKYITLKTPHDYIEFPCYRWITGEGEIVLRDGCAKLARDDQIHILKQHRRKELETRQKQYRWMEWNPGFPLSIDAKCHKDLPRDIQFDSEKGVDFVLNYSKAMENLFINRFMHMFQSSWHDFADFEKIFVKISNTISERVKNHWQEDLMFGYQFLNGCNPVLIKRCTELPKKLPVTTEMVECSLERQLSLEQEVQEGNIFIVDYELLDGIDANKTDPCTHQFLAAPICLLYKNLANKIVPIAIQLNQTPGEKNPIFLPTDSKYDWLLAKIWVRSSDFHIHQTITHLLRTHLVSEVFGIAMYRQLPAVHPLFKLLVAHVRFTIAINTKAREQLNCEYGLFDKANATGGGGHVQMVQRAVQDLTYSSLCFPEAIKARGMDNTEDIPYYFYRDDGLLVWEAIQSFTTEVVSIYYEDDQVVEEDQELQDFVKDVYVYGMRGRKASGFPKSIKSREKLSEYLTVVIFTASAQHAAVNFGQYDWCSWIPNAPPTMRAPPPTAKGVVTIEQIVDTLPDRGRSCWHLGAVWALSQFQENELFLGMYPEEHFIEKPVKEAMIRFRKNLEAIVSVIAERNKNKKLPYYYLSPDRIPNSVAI
Protocol: This test provides an indication of the bioavailability of a test compound as an inhibitor of 5-LO or cyclooxygenase. • c) An in vivo system involving measuring the effects of a test compound administered orally against the liberation of LTB₄ induced by zymosan within an air pouch generated within the subcutaneous tissue of the back of male rats. The rats are anaesthetised and air pouches are formed by the injection of sterile air (20ml). A further injection of air (10ml) is similarly given after 3 days. At 6 days after the initial air injection the test compound is administered (usually orally as the suspension produced when a solution of the test compound in dimethylsulphoxide is added to hydroxypropylmethylcellulose), followed by the intrapouch injection of zymosan (1ml of a 1% suspension in physiological saline). After 3 hours the rats are killed, the air pouches are lavaged with physiological saline, and the specific radioimmunoassay described above is used to assay LTB₄ in the washings. This test provides an indication of inhibitory effects against 5-LO in an inflammatory milieu.

| IC50 (5-LO [1]) | ED50 (5-LO [2]) | SMILES |
| --- | --- | --- |
| < 40 nM | ~1.5 mg/kg | CC(=O)N(C)c1ccc(Sc2cc([C@@]3(C)COC(C)(C)O3)cs2)cc1 [Example 1, N-methyl-4'-{4-[(4S)-2,2,4-trimethyl-1,3-dioxolan-4-yl]thien-2-ylthio}acetanilide] |
| 70 nM |  | CC(=O)N(C)c1ccc(Sc2ncc([C@@]3(C)COC(C)(C)O3)s2)cc1 [Example 2, N-methyl-4'-{5-[(4R)-2,2,4-trimethyl-1,3-dioxolan-4-yl]thiazol-2-ylthio}acetanilide] |
